Test results reported in US20100041089A1, “IMPROVED METHOD FOR DETECTING CHEMICAL […]” (priority 2006, published 2010).

System: yeast genes (expressed mRNA)
Assay: DNA chip measurement of expressed mRNA of yeast genes after culture with a toxic chemical substance
Type: cell-based, Saccharomyces cerevisiae S288C
Settings: for level of expressed mRNA in the presence of chemical substance / level in the absence of chemical substance: cultured two hours with the chemical substance; for The level of expressed mRNA in the presence of chemical substance/The level of expressed mRNA in the absence of chemical substance: cultured two hours with substance
Protocol: Yeast (Saccharomyces cerevisiae S288C (a SUC2mal mel gap2 CUP1)) were cultured at 25° C. on YPD medium (yeast extract 1%, polypeptone 2%, glucose 2%). One of toxic chemical substances was added to the cell at logarithmic growth phase, and the cell was further cultured for two hours. Cell was cultured without any chemical substance in the same condition, and was used as a control. Concentrations of the chemical substances were defined to inhibit the growth of the yeast but not lead to death.
After the completion of cultivation, the culture was centrifuged to collect the cells. To the cells, sodium acetate buffer (50 mM sodium acetate, 10 mM EDTA, 1% SDS) was added, and the mixture was shaken at 65° C. for five minutes, followed by returning to room temperature, and obtaining the supernatant, which procedure was repeated two times. To the supernatant, ½ amount of a solution of phenol/chloroform (1:1) was added, and the mixture was centrifuged to give a supernatant, an equal amount of chloroform was added, and the mixture was centrifuged to give a supernatant. To the supernatant, an equal amount of isopropanol containing 0.3 M sodium acetate was added, and the mixture was allowed to stand at room temperature for 30 minutes, after which the mixture was centrifuged to give sediment of the whole RNAs. Seventy % ethanol was added to the sediment, and the mixture was again centrifuged to give sediment, which was then dried and dissolved in water. mRNA was isolated from the whole RNAs as followings. In view of the fact that a poly A chain is attached to the 3′ terminus of mRNA, a polynucleotide having a poly T structure which was immobilized on the surface of latex beads was used to trap the mRNA, and then the mRNA was washed and eluted with spine column (Oligotex-dT30<Super>mRNA Purification Kit, Takara). Reverse transcription of the mRNA was conducted with a reverse transcriptase (Super Script II Reverse Transcriptase; catalogue No. 18064-014, GibcoBRL) using fluorescence-labeled nucleotides to give cDNAs that were introduced with Cy3-dUTP or Cy5-dUTP during the reverse transcription.
The labeled cDNAs were dissolved in TE buffer (10 mM Tris-HCl/1 mM EDTA, pH 8.0), and the solution was dropped on the DNA chip containing the whole genes of yeast (DNA Chip Research Inc. Japan) so that the cDNAs were hybridized on the DNA chip at 65° C. for over 12 hours. The fluoresces intensity of the DNA chip was read with a scanner, and the ratio relative to the fluorescence intensity resulting from the absence of chemical substance was estimated as the following, which is shown in Tables 1 to 9.
In the Tables, “Intensity” indicated in the rightmost column is a value of the level of expressed mRNA of each gene in control cells as divided by the average level of the expressions of the whole genes. A gene of which mRNA level is lower in control, and is higher in cases of addition of chemical substance, is especially useful in the detection of toxic substances.
Here, when a ratio of an amount of mRNA expressed in the presence of the chemical substance to an amount of mRNA expressed in the absence of the chemical substance is two or more, then it is considered significant.

Manganese ethylenebis(dithiocarbamate) [(8)]
level of expressed mRNA in the presence of chemical substance / level in the absence of chemical substance (yeast gene YJL097W): 0.8 | The level of expressed mRNA in the presence of chemical substance/The level of expressed mRNA in the absence of chemical substance (yeast gene YJL151C): 0.8 | The level of expressed mRNA in the presence of chemical substance/The level of expressed mRNA in the absence of chemical substance (yeast gene YJL152W): 0.7 | The level of expressed mRNA in the presence of chemical substance/The level of expressed mRNA in the absence of chemical substance (yeast gene YJL161W): 1.4 | The level of expressed mRNA in the presence of chemical substance/The level of expressed mRNA in the absence of chemical substance (yeast gene YJL171C): 0.9 | The level of expressed mRNA in the presence of chemical substance/The level of expressed mRNA in the absence of chemical substance (yeast gene YJR008W): 1.1 | level of expressed mRNA in the presence of chemical substance / level in the absence of chemical substance (yeast gene YJR030C): 0.9 | The level of expressed mRNA in the presence of chemical substance/The level of expressed mRNA in the absence of chemical substance (yeast gene YJR054W): 1.6 | level of expressed mRNA in the presence of chemical substance / level in the absence of chemical substance (yeast gene YKL051W): 0.8 | The level of expressed mRNA in the presence of chemical substance/The level of expressed mRNA in the absence of chemical substance (yeast gene YKL071W): 24.7 | The level of expressed mRNA in the presence of chemical substance/The level of expressed mRNA in the absence of chemical substance (yeast gene YKL086W): 1.1 | level of expressed mRNA in the presence of chemical substance / level in the absence of chemical substance (yeast gene YKL097C): 0.4 | level of expressed mRNA in the presence of chemical substance / level in the absence of chemical substance (yeast gene YKL100C): 0.7 | The level of expressed mRNA in the presence of chemical substance/The level of expressed mRNA in the absence of chemical substance (yeast gene YKL151C): 1.0 | The level of expressed mRNA in the presence of chemical substance/The level of expressed mRNA in the absence of chemical substance (yeast gene YKL153W): 0.7 | The level of expressed mRNA in the presence of chemical substance/The level of expressed mRNA in the absence of chemical substance (yeast gene YKL195W): 1.2 | level of expressed mRNA in the presence of chemical substance / level in the absence of chemical substance (yeast gene YKR040C): 1.0 | The level of expressed mRNA in the presence of chemical substance/The level of expressed mRNA in the absence of chemical substance (yeast gene YKR091W): 1.3 | The level of expressed mRNA in the presence of chemical substance/The level of expressed mRNA in the absence of chemical substance (yeast gene YLR054C): 1.1 | The level of expressed mRNA in the presence of chemical substance/The level of expressed mRNA in the absence of chemical substance (yeast gene YLR149C): 1.1 | The level of expressed mRNA in the presence of chemical substance/The level of expressed mRNA in the absence of chemical substance (yeast gene YLR152C): 1.2 | The level of expressed mRNA in the presence of chemical substance/The level of expressed mRNA in the absence of chemical substance (yeast gene YLR194C): 1.0 | level of expressed mRNA in the presence of chemical substance / level in the absence of chemical substance (yeast gene YLR226W): 1.3 | The level of expressed mRNA in the presence of chemical substance/The level of expressed mRNA in the absence of chemical substance (yeast gene YLR324W): 1.0 | level of expressed mRNA in the presence of chemical substance / level in the absence of chemical substance (yeast gene YLR338W): 0.8 | The level of expressed mRNA in the presence of chemical substance/The level of expressed mRNA in the absence of chemical substance (yeast gene YLR350W): 1.0 | The level of expressed mRNA in the presence of chemical substance/The level of expressed mRNA in the absence of chemical substance (yeast gene YLR387C): 1.4 | level of expressed mRNA in the presence of chemical substance / level in the absence of chemical substance (yeast gene YLR392C): 1.3 | level of expressed mRNA in the presence of chemical substance / level in the absence of chemical substance (yeast gene YLR415C): 0.9 | level of expressed mRNA in the presence of chemical substance / level in the absence of chemical substance (yeast gene YLR427W): 1.1 | The level of expressed mRNA in the presence of chemical substance/The level of expressed mRNA in the absence of chemical substance (yeast gene YLR460C): 8.1 | level of expressed mRNA in the presence of chemical substance / level in the absence of chemical substance (yeast gene YML013W): 0.6 | level of expressed mRNA in the presence of chemical substance / level in the absence of chemical substance (yeast gene YML029W): 0.9 | level of expressed mRNA in the presence of chemical substance / level in the absence of chemical substance (yeast gene YML041C): 1.8 | level of expressed mRNA in the presence of chemical substance / level in the absence of chemical substance (yeast gene YML079W): 1.2 | The level of expressed mRNA in the presence of chemical substance/The level of expressed mRNA in the absence of chemical substance (yeast gene YML117W): 0.7 | The level of expressed mRNA in the presence of chemical substance/The level of expressed mRNA in the absence of chemical substance (yeast gene YMR009W): 1.4 | The level of expressed mRNA in the presence of chemical substance/The level of expressed mRNA in the absence of chemical substance (yeast gene YMR067C): 1.1 | level of expressed mRNA in the presence of chemical substance / level in the absence of chemical substance (yeast gene YMR068W): 0.8 | level of expressed mRNA in the presence of chemical substance / level in the absence of chemical substance (yeast gene YMR071C): 1.1 | The level of expressed mRNA in the presence of chemical substance/The level of expressed mRNA in the absence of chemical substance (yeast gene YMR090W): 3.9 | The level of expressed mRNA in the presence of chemical substance/The level of expressed mRNA in the absence of chemical substance (yeast gene YMR095C): 1.2 | The level of expressed mRNA in the presence of chemical substance/The level of expressed mRNA in the absence of chemical substance (yeast gene YMR097C): 1.5 | The level of expressed mRNA in the presence of chemical substance/The level of expressed mRNA in the absence of chemical substance (yeast gene YMR102C): 1.0 | The level of expressed mRNA in the presence of chemical substance/The level of expressed mRNA in the absence of chemical substance (yeast gene YMR107W): 1.3 | level of expressed mRNA in the presence of chemical substance / level in the absence of chemical substance (yeast gene YMR160W): 0.9 | The level of expressed mRNA in the presence of chemical substance/The level of expressed mRNA in the absence of chemical substance (yeast gene YMR180C): 1.8 | The level of expressed mRNA in the presence of chemical substance/The level of expressed mRNA in the absence of chemical substance (yeast gene YMR184W): 1.9 | The level of expressed mRNA in the presence of chemical substance/The level of expressed mRNA in the absence of chemical substance (yeast gene YMR191W): 1.1 | The level of expressed mRNA in the presence of chemical substance/The level of expressed mRNA in the absence of chemical substance (yeast gene YMR295C): 1.0 | The level of expressed mRNA in the presence of chemical substance/The level of expressed mRNA in the absence of chemical substance (yeast gene YMR316W): 1.6 | level of expressed mRNA in the presence of chemical substance / level in the absence of chemical substance (yeast gene YNL026W): 1.0
